From US7087768B2, “Fumagillol derivatives and preparing method thereof” (Equispharm Co., Ltd., priority 2001, dated 2006)
≈ marks a conversion by molar mass, not a printed value.

System: HUVECs (human umbilical vein endothelial cells)
Assay: Inhibitory effect of fumagillol derivative on HUVEC cell growth (colorimetry)
Type: cell-based
Settings: Homo sapiens, HUVEC, HUVEC growth, cultured 2–3 days with compound, absorption at 490 nm; read-out: IC50
Method: Using the HUVECs (human umbilical vein endothelial), the effect of the fumagillol derivative of the present invention on cell growth was evaluated.
The HUVECs were added to M199 medium supplemented with 20% FBS (fetal bovine serum), 100 U/ml penicillin, 100 μg/ml streptomycin, 1.5 g/L sodium bicarbonate, 0.1 mg/ml endothelial cell growth supplement (Sigma) and 0.1 mg/ml heparin (Sigma), after which the cells were incubated in an incubator at 37° C. under 5% CO2. Cells were subcultured a maximum of 8 times before being discarded.
In order to evaluate inhibitory activity of the fumagillin derivative on growth of HUVECs, the inventive compound was dissolved in DMSO and its concentration was adjusted from 10 mM to 1 mM. Cells were aliquotted to 96 well plates at a density of 2×10^3 cells per well and incubated for about 12–24 hours to be properly attached to the plate. Thereafter, the medium was replaced with new medium. The cells were treated with the compound obtained from each of the above examples at various concentration ranges of from 10 μM to […], and cultured for 2–3 days, followed by removing 100 μl of the medium from each well.
Colorimetry was performed to determine the extent of cell growth. The cells on each plate was added with 20 μl of aqueous one solution and then incubated at 37° C. under 5% CO2 for 2 hours. Using a 96-well plate reader, absorption was measured at 490 nm.
As such, a conventional TNP-470 having angiogenesis inhibitory effect was used as a control.

Going from `CO[C@@H]1C(OC(=O)CNC2CC2)CC[C@](O)(CCl)[C@H]1C1(C)OC1CC=C(C)C` (stereo in doubt) [Ex. 78, 4-((cyclopropylamino)acetyl)oxy-2-(1,2-epoxy-1,5-dimethyl-4-hexenyl)-3-methoxy-1-chloromethyl-1-cyclohexanol] to `CO[C@@H]1C(OC(=O)CNC2CCC2)CC[C@](O)(CCl)[C@H]1C1(C)OC1CC=C(C)C` (stereo in doubt) [Ex. 79, 4-((cyclobutylamino)acetyl)oxy-2-(1,2-epoxy-1,5-dimethyl-4-hexenyl)-3-methoxy-1-chloromethyl-1-cyclohexanol], the IC50 rises from 0.014 ng/mL (≈ 0.0337 nM) to 0.037 ng/mL (≈ 0.086 nM) (2.6-fold).

Going from `COc1ccc(NCC(=O)O[C@@H]2CC[C@]3(CO3)[C@@H]([C@@]3(C)OC3CC=C(C)C)[C@@H]2OC)cc1` (some centres unmarked) [Ex. 1, 6-O-(4-methoxyaniline)acetyl fumagillol] to `CO[C@@H]1[C@H](OC(=O)CNc2ccc(OC(C)=O)cc2)CC[C@]2(CO2)[C@H]1[C@@]1(C)OC1CC=C(C)C` (some centres unmarked) [Ex. 33, 6-O-(4-acetoxyaniline)acetyl fumagillol], the IC50 rises from 0.0071 ng/mL (≈ 0.0159 nM) to 109 ng/mL (≈ 230 nM) (15000-fold).

Going from `COc1cc(NCC(=O)O[C@@H]2CC[C@]3(CO3)[C@@H]([C@@]3(C)OC3CC=C(C)C)[C@@H]2OC)cc(OC)c1OC` (some centres unmarked) [Ex. 2, 6-O-(3,4,5-trimethoxyaniline)acetyl fumagillol] to `COc1cc(NCC(=O)O[C@@H]2CC[C@]3(CO3)[C@@H]([C@@]3(C)OC3CC=C(C)C)[C@@H]2OC)cc(O)c1OC` (some centres unmarked) [Ex. 27, 6-O-(3,4-dimethoxy-5-hydroxyaniline)acetyl fumagillol], the IC50 rises from 0.15 ng/mL (≈ 0.297 nM) to 88 ng/mL (≈ 179 nM) (590-fold).

First: COc1ccc(NCC(=O)O[C@@H]2CC[C@]3(CO3)[C@@H]([C@@]3(C)OC3CC=C(C)C)[C@@H]2OC)c(OC)c1 (some centres unmarked) [Ex. 3, 6-O-(2,4-dimethoxyaniline)acetyl fumagillol]
Second: COc1ccc(NCC(=O)O[C@@H]2CC[C@]3(CO3)[C@@H]([C@@]3(C)OC3CC=C(C)C)[C@@H]2OC)c(OC)c1OC (some centres unmarked) [Ex. 25]
The IC50 of the first is 3.4-fold lower: 0.09 ng/mL (≈ 0.189 nM) for the first, 0.31 ng/mL (≈ 0.613 nM) for the second.

Going from `COc1cc(NCC(=O)O[C@@H]2CC[C@]3(CO3)[C@@H]([C@@]3(C)OC3CC=C(C)C)[C@@H]2OC)c([N+](=O)[O-])cc1OC` (some centres unmarked) [Ex. 5, 6-O-(3,4-dimethoxy-6-nitroaniline)acetyl fumagillol] to `COc1cc(C#N)c(NCC(=O)O[C@@H]2CC[C@]3(CO3)[C@@H]([C@@]3(C)OC3CC=C(C)C)[C@@H]2OC)cc1OC` (some centres unmarked) [Ex. 6, 6-O-(3,4-dimethoxy-6-cyanoaniline)acetyl fumagillol], the IC50 falls from 142 ng/mL (≈ 273 nM) to 19 ng/mL (≈ 38 nM) (7.5-fold).

Going from `C=CCOc1ccc(NCC(=O)O[C@@H]2CC[C@]3(CO3)[C@@H]([C@@]3(C)OC3CC=C(C)C)[C@@H]2OC)cc1` (some centres unmarked) [Ex. 7, 6-O-(4-allyloxyaniline)acetyl fumagillol] to `CCCOc1ccc(NCC(=O)O[C@@H]2CC[C@]3(CO3)[C@@H]([C@@]3(C)OC3CC=C(C)C)[C@@H]2OC)cc1` (some centres unmarked) [Ex. 17, 6-O-(4-propyloxyaniline)acetyl fumagillol], the IC50 falls from 21 ng/mL (≈ 44.5 nM) to 0.61 ng/mL (≈ 1.29 nM) (34-fold).

Going from `CO[C@@H]1[C@H](OC(=O)CNc2ccc(OCCOC(C)=O)cc2)CC[C@]2(CO2)[C@H]1[C@@]1(C)OC1CC=C(C)C` (some centres unmarked) [Ex. 8, 6-O-(4-(2-acetoxyethoxy)aniline)acetyl fumagillol] to `CNCCOc1ccc(NCC(=O)O[C@@H]2CC[C@]3(CO3)[C@@H]([C@@]3(C)OC3CC=C(C)C)[C@@H]2OC)cc1` (some centres unmarked) [Ex. 30, 6-O-(4-ethylaminoethoxyaniline)acetyl fumagillol], the IC50 falls from 42 ng/mL (≈ 81.1 nM) to 0.09 ng/mL (≈ 0.184 nM) (470-fold).

First: COc1ccc(NCC(=O)O[C@@H]2CC[C@]3(CO3)[C@@H]([C@@]3(C)OC3CC=C(C)C)[C@@H]2OC)cc1C#N (some centres unmarked) [Ex. 9, 6-O-(3-cyano-4-methoxyaniline)acetyl fumagillol]
Second: COc1ccc(NCC(=O)O[C@@H]2CC[C@]3(CO3)[C@@H]([C@@]3(C)OC3CC=C(C)C)[C@@H]2OC)cc1CN(C)C (some centres unmarked) [Ex. 10, 6-O-(3-(dimethylaminomethyl)-4-methoxyaniline)acetyl fumagillol]
The IC50 of the first is 10-fold higher: 0.63 ng/mL (≈ 1.34 nM) for the first, 0.06 ng/mL (≈ 0.119 nM) for the second.

Compared with `CO[C@@H]1[C@H](OC(=O)CNc2ccc(OCC(C)C)cc2)CC[C@]2(CO2)[C@H]1[C@@]1(C)OC1CC=C(C)C` (some centres unmarked) [Ex. 11], `CO[C@@H]1[C@H](OC(=O)CNc2ccc(Cl)cc2)CC[C@]2(CO2)[C@H]1[C@@]1(C)O[C@@H]1CC=C(C)C` [Ex. 19, 6-O-(4-chloroaniline)acetyl fumagillol] is 2200-fold higher in IC50: 0.08 ng/mL (≈ 0.164 nM) for the first, 174 ng/mL (≈ 387 nM) for the second.

`COc1ccc(NCC(=O)O[C@@H]2CC[C@]3(CO3)[C@@H]([C@@]3(C)OC3CC=C(C)C)[C@@H]2OC)cc1OC(C)C` (some centres unmarked) [Ex. 12, 6-O-(3-isopropoxy-4-methoxyaniline)acetyl fumagillol] and `COc1c(C)cc(NCC(=O)O[C@@H]2CC[C@]3(CO3)[C@@H]([C@@]3(C)OC3CC=C(C)C)[C@@H]2OC)cc1C` (some centres unmarked) [Ex. 15, 6-O-(3,5-dimethyl-4-methoxyaniline)acetyl fumagillol] are within 1.5-fold of each other in IC50: 0.07 ng/mL (≈ 0.139 nM) for the first, 0.06 ng/mL (≈ 0.127 nM) for the second.

Compared with `COc1c(C(C)C)cc(NCC(=O)O[C@@H]2CC[C@]3(CO3)[C@@H]([C@@]3(C)OC3CC=C(C)C)[C@@H]2OC)cc1C(C)C` (some centres unmarked) [Ex. 14, 6-O-(3,5-diisopropyl-4-methoxyaniline)acetyl fumagillol], `CCOc1cc(C)c(NCC(=O)O[C@@H]2CC[C@]3(CO3)[C@@H]([C@@]3(C)OC3CC=C(C)C)[C@@H]2OC)cc1C(C)C` (some centres unmarked) [Ex. 16, 6-O-(3-isopropyl-4-ethoxy-6-methylaniline)acetyl fumagillol] is 82-fold lower in IC50: 14 ng/mL (≈ 26.4 nM) for the first, 0.17 ng/mL (≈ 0.33 nM) for the second.

`CO[C@@H]1[C@H](OC(=O)CNc2ccc(O)cc2)CC[C@]2(CO2)[C@H]1[C@@]1(C)OC1CC=C(C)C` (some centres unmarked) [Ex. 21, 6-O-(4-hydroxyaniline)acetyl fumagillol] and `CO[C@@H]1[C@H](OC(=O)CNc2ccc(N)cc2)CC[C@]2(CO2)[C@H]1[C@@]1(C)OC1CC=C(C)C` (some centres unmarked) [Ex. 22, 6-O-(4-aminoaniline)acetyl fumagillol] are within 1.5-fold of each other in IC50: 185 ng/mL (≈ 429 nM) for the first, 179 ng/mL (≈ 416 nM) for the second.

Compared with `CO[C@@H]1[C@H](OC(=O)CNc2ccc3c(c2)OCO3)CC[C@]2(CO2)[C@H]1[C@@]1(C)OC1CC=C(C)C` (some centres unmarked) [Ex. 23, 6-O-(3,4-methylenedioxyaniline)acetyl fumagillol], `CO[C@@H]1[C@H](OC(=O)CNc2ccc(C#N)cc2)CC[C@]2(CO2)[C@H]1[C@@]1(C)OC1CC=C(C)C` (some centres unmarked) [Ex. 34, 6-O-(4-cyanoaniline)acetyl fumagillol] is 410-fold higher in IC50: 0.24 ng/mL (≈ 0.522 nM) for the first, 98 ng/mL (≈ 222 nM) for the second.

`CO[C@@H]1[C@H](OC(=O)CNc2ccc([N+](=O)[O-])cc2)CC[C@]2(CO2)[C@H]1[C@@]1(C)OC1CC=C(C)C` (some centres unmarked) [Ex. 24, 6-O-(4-nitroaniline)acetyl fumagillol] and `CO[C@@H]1[C@H](OC(=O)CNc2ccc(C(F)(F)F)cc2)CC[C@]2(CO2)[C@H]1[C@@]1(C)OC1CC=C(C)C` (some centres unmarked) [Ex. 32, 6-O-(4-trifluoromethylaniline)acetyl fumagillol] are within 1.5-fold of each other in IC50: 181 ng/mL (≈ 393 nM) for the first, 128 ng/mL (≈ 265 nM) for the second.

Same assay, conditions: Homo sapiens; HUVEC growth, cultured 2–3 days with compound, absorption at 490 nm; read-out: IC50

Compared with `COc1ccc(NCC(=O)O[C@@H]2CC[C@]3(CO3)[C@@H]([C@@]3(C)OC3CC=C(C)C)[C@@H]2OC)cc1OC` (some centres unmarked) [Ex. 4, 6-O-(3,4-dimethoxyaniline)acetyl fumagillol], `CO[C@@H]1[C@H](OC(=O)CNc2ccc(N(C)C)cc2)CC[C@]2(CO2)[C@H]1[C@@]1(C)OC1CC=C(C)C` (some centres unmarked) [Ex. 20, 6-O-(4-dimethylaminoaniline)acetyl fumagillol] is 2000-fold higher in IC50: 0.08 ng/mL (≈ 0.168 nM) for the first, 162 ng/mL (≈ 353 nM) for the second.

`CO[C@@H]1[C@H](OC(=O)CNc2ccccc2)CC[C@]2(CO2)[C@H]1[C@@]1(C)OC1CC=C(C)C` (some centres unmarked) [Ex. 18, 6-O-(aniline)acetyl fumagillol] was tested, and the IC50 was 17 ng/mL (≈ 40.9 nM).

Same assay, conditions: relative to TNP-470

With `COc1ccc(NCC(=O)O[C@@H]2CC[C@]3(CO3)[C@@H]([C@@]3(C)OC3CC=C(C)C)[C@@H]2OC)cc1` (some centres unmarked) [Ex. 1, 6-O-(4-methoxyaniline)acetyl fumagillol] the “inhibitory effect on HUVEC, times greater than TNP-470” value was 2000 times.
